Key:
[1] = test system: calcium dependent smooth muscle contraction (trachealis muscle tissue); test: Inhibition of calcium dependent smooth muscle contraction (tracheal rings, KCl challenge); format: cell-based, dogs; details: Canis lupus familiaris, 10 μM test compound for 10 min, dog tracheal rings, 30 min, 37° C.
Description: (§1) The calcium channel blocking activity of the above compounds was determined by measuring (A) the inhibition of calcium dependent smooth muscle contraction and (B) inhibition of nitrendipine binding as follows.
(A) Trachea from dogs sacrificed by excess KCl injection were stored overnight at 4° C. in oxygenated Krebs-Henseleit buffer. Tracheal rings, one cartilage segment wide (5-10 mm) were cut starting from the bronchial end. After cutting the cartilage, the trachealis muscle tissue was suspended in oxygenated Krebs-Henseleit buffer at 37° C. in a 25 ml tissue bath. After a 60 minute equilibration period, the tissues were challenged with 10 μM carbachol. After five minutes, the tissues were rinsed and allowed to rest 50 minutes. The tissues were then challened with 50 mM KCl and, after 30 minutes, the contracts were quantitated. The tissues were then rinsed and re-equilibrated for 50 minutes. Test compounds were then added at 10 μM for 10 minutes, and the tissues were rechallenged with 40 mM KCl.
The percent inhibition of smooth muscle contraction was calculated from response data before and after drug treatment. [formula]

[2] = molecular target: T1, calcium channel (nitrendipine binding) (Oryctolagus cuniculus, UniProt P15381); test: Inhibition of 3H-nitrendipine binding (heart membranes), calcium channel blocking activity; set-up: species or system female New Zealand white rabbits; details: 3H-nitrendipine 0.05-0.50 nM; rabbit heart membranes; 90 min at 4° C.; pH 7.4; read-out: B: IC50 (inhibition of nitrendipine binding)
T1 construct: the heart was immediately removed, cleaned and chopped into small pieces; from tissue; host or cells: rabbit heart, crude membrane pellet (42,000×g)
Description: as §1
(B) The inhibition of nitrendipine binding was determined by following the procedures of Bolger et al., Biochem. Biophys. Res. Comm. 104, 1604 (1982) and Ehlert et al., Life Sciences 30, 2191 (1982). Basically, female New Zealand white rabbits (1-2 kg) were sacrificed by cervical dislocation, and the heart was immediately removed, cleaned and chopped into small pieces. The tissue was homogenized in 5× volume of 0.05M Hepes buffer, pH 7.4. The homogenate was centrifuged at 400×g for 10 minutes; the supernatant was recentrifuged at 42,000×g for 90 minutes. The resulting membrane pellet was resuspended (0.7 ml/g weight) in 0.05M Hepes, pH 7.4, and stored at -70° C. until used. Each tube of the binding assay contained ^3 H-nitrendipine (0.05-0.50 nM), buffer, membranes (0.10 ml), and test compound in a total volume of 1.0 ml. After 90 minutes at 4° C., the bound nitrendipine was separated from the unbound by filtration to Whatman GF/C fibers. After rinsing, the filters were dried and counted in a liquid scintillation counter.
Non-specific binding of ^3 H-nitrendipine (that amount bound in the presence of excess unlabelled nitrendipine) was subtracted from the total bound to obtain specifically bound radiolabeled nitrendipine. The amount of specifically bound nitrendipine in the presence of a test compound was compared to that amount bound in the absence of a compound. A percent displacement (or inhibition) was then obtained.

[3] = test system: quadriceps femoris muscle of one hind leg; test: Local anesthetic activity: impaired ability of mice to grasp inverted screen after injection into quadriceps femoris muscle; format: in vivo, male albino overnight-fasted mice; details: Mus musculus, im, 5 min; overnight-fasted mice; 0.05 ml solution or suspension (w/v) injected into quadriceps femoris muscle of one hind leg; observed 5 min later; read-out: Concentration (in %) of Compound Causing Local Anesthetic Activity
Description: The local anesthetic activity of the above compounds was tested as follows.
The test compounds were dissolved or suspended in a 0.5% aqueous methylcellulose solution containing 0.4% (v/v) of Tween 80, The polyoxyethylene derivative of a sorbitan ester. Doses of up to 100 mg/kg were administered orally by gagvage tube to groups of three male albino overnight-fasted mice (18 to 24 g) which were observed intermittently for one hour. The mice were gently restrained and 0.05 ml of a 1% (w/v) solution or suspension of the test compound was injected into the quadriceps femoris muscle of one hind leg. Five minutes later, the mice were individually placed on a wire mesh screen. The wire mesh screen was then inverted. […] The response to the test compounds was compared to a similarly treated vehicle control group of mice.

[4] = test system: gastric acid secretion; test: Antisecretory activity: gastric acid secretion in pylorus-ligated rats; format: in vivo, male Charles River Sprague Dawley derived rats; details: Rattus norvegicus, intraduodenal or s.c., 4 h after ligation, acid output compared to control, read-out: % Acid Secreted
Description: The antisecretory activity of the above compounds was determined by measuring gastric acid secretion using pylorus ligation in a modification of the procedure of Shay et al., Gastroenterology 26, 906 (1954). Basically, male Charles River Sprague Dawley derived rats weighing 150-300 grams were deprived of food but not water for 18-24 hours prior to use. Water was withheld during the experiment, however. The rats were weighed, anesthesized with ether and the pylorus ligated according to the method of Shay et al., supra. Treatment or vehicle control was then administered intraduodenally (i.d.) or subcutaneously (s.c.). Rats were housed two/cage and sacrificed with CO2 four hours after ligation. The stomachs were removed, rinsed, and contents emptied into a graduated centrifuge tube. The tubes were centrifuged, the volume of gastric juice recorded, and any samples obviously contamined by feces, food or blood were eliminated. A 1 ml aliquot of gastric juice was titrated with 0.1N NaOH to a pH of 7.0-7.4. The volume of gastric juice secreted, the acid concentration, and the product of the volume times the concentration, i.e., the total amount of acid secreted, were measured.

T1 sequence (P15381 whole entry, other chains not shown): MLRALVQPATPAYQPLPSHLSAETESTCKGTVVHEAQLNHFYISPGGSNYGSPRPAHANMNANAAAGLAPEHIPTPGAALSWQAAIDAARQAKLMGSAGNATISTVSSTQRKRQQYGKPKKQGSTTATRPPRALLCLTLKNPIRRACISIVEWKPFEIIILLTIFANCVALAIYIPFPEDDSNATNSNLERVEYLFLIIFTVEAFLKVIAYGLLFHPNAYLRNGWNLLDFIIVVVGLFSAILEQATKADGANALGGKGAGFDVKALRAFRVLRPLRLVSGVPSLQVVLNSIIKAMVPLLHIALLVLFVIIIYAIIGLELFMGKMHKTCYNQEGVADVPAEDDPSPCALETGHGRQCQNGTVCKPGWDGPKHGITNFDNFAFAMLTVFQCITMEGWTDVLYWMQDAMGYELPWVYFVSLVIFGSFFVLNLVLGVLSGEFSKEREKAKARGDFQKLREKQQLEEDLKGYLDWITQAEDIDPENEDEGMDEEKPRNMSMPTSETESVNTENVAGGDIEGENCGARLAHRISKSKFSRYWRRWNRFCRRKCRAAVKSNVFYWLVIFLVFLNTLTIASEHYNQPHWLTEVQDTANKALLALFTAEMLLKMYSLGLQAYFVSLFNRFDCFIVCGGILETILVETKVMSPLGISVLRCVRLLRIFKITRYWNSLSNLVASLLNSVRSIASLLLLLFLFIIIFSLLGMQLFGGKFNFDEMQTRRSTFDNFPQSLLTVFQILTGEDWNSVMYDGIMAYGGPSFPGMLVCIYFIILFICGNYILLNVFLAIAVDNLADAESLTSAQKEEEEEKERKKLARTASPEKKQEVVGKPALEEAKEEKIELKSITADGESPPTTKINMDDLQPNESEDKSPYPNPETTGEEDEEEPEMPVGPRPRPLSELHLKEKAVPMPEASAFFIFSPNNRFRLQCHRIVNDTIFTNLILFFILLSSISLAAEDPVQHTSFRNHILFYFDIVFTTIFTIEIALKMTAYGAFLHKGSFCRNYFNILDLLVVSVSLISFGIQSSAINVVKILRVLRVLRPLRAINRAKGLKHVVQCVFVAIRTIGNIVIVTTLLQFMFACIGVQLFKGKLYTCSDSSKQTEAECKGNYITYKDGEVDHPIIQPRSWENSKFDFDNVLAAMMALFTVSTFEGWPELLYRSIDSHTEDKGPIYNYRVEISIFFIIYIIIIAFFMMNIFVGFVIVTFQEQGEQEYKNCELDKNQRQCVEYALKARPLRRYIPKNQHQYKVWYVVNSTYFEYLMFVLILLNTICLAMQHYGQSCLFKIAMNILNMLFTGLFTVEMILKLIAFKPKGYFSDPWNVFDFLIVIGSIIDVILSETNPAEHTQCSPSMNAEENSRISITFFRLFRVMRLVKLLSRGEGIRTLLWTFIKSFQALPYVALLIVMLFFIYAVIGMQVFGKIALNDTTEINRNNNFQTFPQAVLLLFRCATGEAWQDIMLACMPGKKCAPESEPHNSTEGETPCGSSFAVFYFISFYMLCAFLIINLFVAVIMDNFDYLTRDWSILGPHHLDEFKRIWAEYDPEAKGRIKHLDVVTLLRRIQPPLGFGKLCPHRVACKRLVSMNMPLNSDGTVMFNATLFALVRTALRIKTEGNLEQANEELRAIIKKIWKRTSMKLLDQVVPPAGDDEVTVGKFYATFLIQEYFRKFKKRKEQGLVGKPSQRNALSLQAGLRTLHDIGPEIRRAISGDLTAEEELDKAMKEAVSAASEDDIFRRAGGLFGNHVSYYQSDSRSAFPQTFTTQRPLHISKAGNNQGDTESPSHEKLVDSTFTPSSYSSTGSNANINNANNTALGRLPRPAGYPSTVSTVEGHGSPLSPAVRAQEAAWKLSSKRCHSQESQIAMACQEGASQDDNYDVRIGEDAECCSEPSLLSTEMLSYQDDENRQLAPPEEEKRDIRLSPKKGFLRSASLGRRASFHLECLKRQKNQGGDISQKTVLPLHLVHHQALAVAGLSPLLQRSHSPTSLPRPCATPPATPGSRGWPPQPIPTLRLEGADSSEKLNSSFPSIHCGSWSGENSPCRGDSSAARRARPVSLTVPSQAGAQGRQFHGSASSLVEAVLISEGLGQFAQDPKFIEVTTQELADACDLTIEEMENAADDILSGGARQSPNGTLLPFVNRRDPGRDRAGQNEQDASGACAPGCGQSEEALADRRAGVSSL
T1 sequence (P13806 27-960 partner limits assumed, other chains not shown): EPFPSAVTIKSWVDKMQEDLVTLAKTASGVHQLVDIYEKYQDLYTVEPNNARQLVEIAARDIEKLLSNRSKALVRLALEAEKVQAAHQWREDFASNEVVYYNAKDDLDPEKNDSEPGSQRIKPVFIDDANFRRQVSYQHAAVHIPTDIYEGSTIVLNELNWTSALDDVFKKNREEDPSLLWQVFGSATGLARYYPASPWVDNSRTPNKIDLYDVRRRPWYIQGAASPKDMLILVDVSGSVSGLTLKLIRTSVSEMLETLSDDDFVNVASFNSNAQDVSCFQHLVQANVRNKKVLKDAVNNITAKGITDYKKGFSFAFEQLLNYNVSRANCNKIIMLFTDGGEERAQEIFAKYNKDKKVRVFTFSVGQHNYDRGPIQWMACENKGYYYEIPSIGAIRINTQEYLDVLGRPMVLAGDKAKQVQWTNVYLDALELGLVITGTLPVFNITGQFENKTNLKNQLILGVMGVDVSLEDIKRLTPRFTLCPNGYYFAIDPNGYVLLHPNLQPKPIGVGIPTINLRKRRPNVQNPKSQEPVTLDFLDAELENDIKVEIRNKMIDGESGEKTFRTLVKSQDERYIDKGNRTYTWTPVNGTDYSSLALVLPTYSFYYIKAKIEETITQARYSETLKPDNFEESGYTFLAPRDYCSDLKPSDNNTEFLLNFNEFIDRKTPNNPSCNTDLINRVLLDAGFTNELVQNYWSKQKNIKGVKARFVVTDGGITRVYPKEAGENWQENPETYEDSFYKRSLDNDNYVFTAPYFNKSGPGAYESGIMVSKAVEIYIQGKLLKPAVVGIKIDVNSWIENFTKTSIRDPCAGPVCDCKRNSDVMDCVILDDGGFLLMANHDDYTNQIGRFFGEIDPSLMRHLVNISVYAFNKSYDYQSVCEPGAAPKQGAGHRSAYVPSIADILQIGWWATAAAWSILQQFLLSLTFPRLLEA
T1 sequence (P13806 961-1106 partner limits assumed, other chains not shown): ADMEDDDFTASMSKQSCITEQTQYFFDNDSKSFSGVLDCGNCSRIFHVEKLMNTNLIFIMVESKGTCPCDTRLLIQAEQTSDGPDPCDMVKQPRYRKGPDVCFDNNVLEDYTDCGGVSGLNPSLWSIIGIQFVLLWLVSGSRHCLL

| Structure (SMILES) | IC50 [2] [nM] | inhibition at 10 µM [1] [%] | minimal effective concentration [3] [µg/mL] | change in vivo at 20 mg/kg [4] [%] | change in vivo at 40 mg/kg ([4]; 40 mg/kg) [%] |
| --- | --- | --- | --- | --- | --- |
| CCCCN(CCCC)CCCOc1ccc(-c2cn3ccccc3n2)cc1 [Example 1, 2-(4-Dibutylaminopropoxyphenyl)imidazo[1,2-a]pyridine] | 2700 | 54 | 1000 | -41 |  |
| CCCCN(CCCC)CCCOc1ccc(-c2cn3cc(Br)ccc3n2)cc1 [Example 3, 2-(4-Dibutylaminopropoxyphenyl)-6-bromoimidazo[1,2-a]pyridine] | 2500 | 32 | 10000 | -18 |  |
| CCCCN(CCCC)CCCOc1ccc(-c2cn3ccc(C)cc3n2)cc1 [Example 4, 2-(4-Dibutylaminopropoxyphenyl)-7-methylimidazo[1,2-a]pyridine] | 6000 | 46 | 1000 |  |  |
| CCCCN(CCCC)CCCOc1ccc(-c2cn3cccc(O)c3n2)cc1 [Example 5, 2-(4-Dibutylaminopropoxyphenyl)-8-hydroxyimidazo[1,2-a]pyridine] |  |  | 10000 |  |  |
| CCCCN(CCCC)CCCOc1ccc(-c2cn3cccc(OCc4ccccc4)c3n2)cc1 [Example 6, 2-(4-Dibutylaminopropoxyphenyl)-8-benzloxyimidazo[1,2-a]pyridine] | > 8000 | 35 | 1000 | -16 |  |
| CCCCN(CCCC)CCCOc1ccc(-c2nc3c(C)cccn3c2C)cc1 [Example 7, 2-(4-Dibutylaminopropoxyphenyl)-3,8-dimethylimidazo[1,2-a]pyridine] | 1900 | 27 | 1000 | -54 |  |
| CCCCN(CCCC)CCCOc1ccc(C(=O)c2cn3c(C)cc(C)cc3n2)cc1 [Example 9, 2-(4-Dibutylaminopropoxybenzoyl)-5,7-dimethylimidazo[1,2-a]pyridine] | 2200 | 39 | 10000 | -27 |  |
| CCCCN(CCCC)CCCOc1ccc(C(=O)c2cn3cccc(OCc4ccccc4)c3n2)cc1 [Example 11, 2-(4-Dibutylaminopropoxybenzoyl)-8-benzyloxyimidazo[1,2-]pyridine] | 2300 | 18 | 1000 |  |  |
| CCCCN(CCCC)CCCOc1ccc(C(=O)c2cn3cc(Br)ccc3n2)cc1 [Example 12] | 3000 |  | 10000 |  |  |

More lines, main results first:

| IC50 [2] [nM] | Structure (SMILES) | inhibition at 10 µM [1] [%] | minimal effective concentration [3] [µg/mL] | change in vivo at 20 mg/kg [4] [%] | change in vivo at 40 mg/kg ([4]; 40 mg/kg) [%] |
| --- | --- | --- | --- | --- | --- |
| 600 | CCCCN(CCCC)CCCOc1ccc(-c2cn3cccc(C)c3n2)cc1 [Example 2, 2-(4-Dibutylaminopropoxyphenyl)-8-methylimidazo[1,2-a]pyridine] | 61 | 10 | -91 |  |
| 600 | CCCCN(CCCC)CCCOc1ccc(C(=O)c2cn3cccc(C)c3n2)cc1 [Example 8, 2-(4-Dibutylaminopropoxybenzoyl)-8-methylimidazo[1,2-a]pyridine] | 58 | 10000 | -27 |  |
| 1600 | CCCCN(CCCC)CCCOc1ccc(C(=O)c2cn3ccc(C)cc3n2)cc1 [Example 10, 2-(4-Dibutylaminopropoxybenzoyl)-7-methylimidazo[1,2-a]pyridine] | 42 | 10000 |  |  |
| 530 | CCCCN(CCCC)CCCOc1ccc(C(=O)c2cnc3c(C)cccn23)cc1 [Example 13, 3-(4-Dibutylaminopropoxybenzoyl)-8-methylimidazo[1,2-a]pyridine] | 56 | 1000 |  | -49 |
| 200 | CCCCN(CCCC)CCCOc1ccc(C(=O)c2cnc3ccc(Br)cn23)cc1 [Example 14, 3-(4-Dibutylaminopropoxybenzoyl)-6-bromoimidazo[1,2-a]pyridine] | 62 | 1000 | -18 |  |

Source: patent US4871745A, “2- or 3-aryl substituted imidazo(1,2-A)pyridines and their use as antisecretory agents” (Ortho Pharmaceutical Corporation, priority 1988, dated 1989)
